Values quoted from earlier work, collected in patent US7960102B2, “Regulated aptamer therapeutics” (Archemix Corp., priority 2002, dated 2011).

Biological target: N1 aptamer
Conditions: 10 nM labeled N1 aptamer, 1×SB, room temperature, three experiments; read-out: Kd of neomycin for aptamer (protection from T1 cleavage at G27)

- Kd: 940 ± 60 nM
Substance: neomycin
